The values that follow are results of earlier work, collected in patent US20100040600A1, “Agents for Promoting the Growth of Hematopoietic Stem Cells” (CHUGAI SEIYAKU KABUSHIKI KAISHA, priority 2006, published 2010).

pEC50: −log10 of the molar value. Numbered stars: 1 amine (or outer) side, 2 acyl side, 3 side chain; on linkers, the order of the positions; unused ones are H or OH. Bridge positions count the residues as written; N and C are the ends. Square brackets hold non-standard residues; d marks the D form. Peptide text beside a SMILES is read from it. I, II: the chains in the order shown. 2Nal = N[CH](Cc1ccc2ccccc2c1)C(=O)O; X1 = NC(N)NCCCC(N[*:1])C(=O)[*:2]; NMeI = CC[CH](C)[CH](NC)C(=O)O; Sar = CNCC(=O)O

What is called pEC50 is −log10 of the EC50, conventionally taken in molar units.

Data set [1] relates to c-mpl. The following applies: cited from earlier work.
For data set [2], the system named is c-mpl. As to conditions: cited from earlier work. The source holds these as a separate data set.
The target of data set [3] is T1, hu c-mpl transmembrane domain (Homo sapiens, UniProt P40238).
T1 sequence (P40238 26-635): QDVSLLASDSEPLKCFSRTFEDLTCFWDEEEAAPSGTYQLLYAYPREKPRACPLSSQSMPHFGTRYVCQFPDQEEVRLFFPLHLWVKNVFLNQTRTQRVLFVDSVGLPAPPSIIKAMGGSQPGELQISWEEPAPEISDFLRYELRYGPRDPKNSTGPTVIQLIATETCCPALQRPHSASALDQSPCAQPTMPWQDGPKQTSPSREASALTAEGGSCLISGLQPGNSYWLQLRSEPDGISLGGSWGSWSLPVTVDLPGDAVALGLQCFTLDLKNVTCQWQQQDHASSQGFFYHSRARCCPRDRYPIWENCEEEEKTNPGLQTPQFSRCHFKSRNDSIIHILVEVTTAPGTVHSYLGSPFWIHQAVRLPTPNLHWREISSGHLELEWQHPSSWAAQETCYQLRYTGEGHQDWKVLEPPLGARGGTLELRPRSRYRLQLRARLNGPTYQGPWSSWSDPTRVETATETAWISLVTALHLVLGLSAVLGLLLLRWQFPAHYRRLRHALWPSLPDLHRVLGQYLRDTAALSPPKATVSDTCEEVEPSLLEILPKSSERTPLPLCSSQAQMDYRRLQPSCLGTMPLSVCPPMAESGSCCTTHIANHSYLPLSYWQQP
The following applies: cited from earlier work.

In data set [4] the target is T2, c-mpl (Homo sapiens, UniProt P40238).
T2 sequence (P40238 26-635): T1 sequence (P40238 26-635)
The following applies: cited from earlier work.

Data set [5] deals with c-mpl. As to conditions: cited from earlier work. The source holds these as a separate data set.
The conditions of data set [6]: cited from earlier work.
Data set [7] deals with T3, c-mpl (Mus musculus, UniProt Q08351).
T3 sequence (Q08351 26-625): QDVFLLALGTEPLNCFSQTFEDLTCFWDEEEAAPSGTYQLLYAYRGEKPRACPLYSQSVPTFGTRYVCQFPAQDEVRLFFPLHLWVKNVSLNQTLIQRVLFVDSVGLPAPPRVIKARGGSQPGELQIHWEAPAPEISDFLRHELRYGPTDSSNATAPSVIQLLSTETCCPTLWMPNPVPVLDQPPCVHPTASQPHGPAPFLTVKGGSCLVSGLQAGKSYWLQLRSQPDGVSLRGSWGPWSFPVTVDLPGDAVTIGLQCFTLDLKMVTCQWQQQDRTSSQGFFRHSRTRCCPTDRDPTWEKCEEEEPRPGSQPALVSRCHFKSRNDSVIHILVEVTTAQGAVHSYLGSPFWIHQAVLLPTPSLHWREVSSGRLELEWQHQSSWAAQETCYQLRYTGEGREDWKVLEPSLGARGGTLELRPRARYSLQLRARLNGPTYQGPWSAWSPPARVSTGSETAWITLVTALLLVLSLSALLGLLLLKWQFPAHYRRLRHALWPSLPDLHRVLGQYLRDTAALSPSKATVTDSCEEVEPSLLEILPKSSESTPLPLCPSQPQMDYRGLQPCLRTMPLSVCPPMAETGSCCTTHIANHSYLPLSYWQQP
The following applies: cited from earlier work.

For a further data set, the system named is Hu BM CD34. The following applies: in vitro activity; read-out: Hu BM CD34 differentiation assay: EC50; cited from earlier work.
The next data set deals with T4, mouse receptors (Mus musculus, UniProt Q08351).
T4 sequence (Q08351 26-625): T3 sequence (Q08351 26-625)
As to conditions: cited from earlier work.

In the next data set the test system is rat receptors. As to conditions: cited from earlier work.
Another data set has as its system dog receptors. As to conditions: cited from earlier work.

For the compound `CC1=NN(c2ccc(C)c(C)c2)C(=O)/C1=N\Nc1cccc(-c2cccc(C(=O)O)c2)c1O` [SB297115/Eltrombopag], the “cross-reactivity: chimpanzee” value in the data set with c-mpl [1] is given as “Cross-reactivity: chimpanzee”. In addition, in the data set on c-mpl [2], the “cross-reactivity: cat” value is given as “No cross-reactivity: cynomolgus macaques, cat, mouse, etc”. Also, in data set [3], the Binding site entry is listed as “Binding site: a hu c-mpl transmembrane domain (His499, Thr496)”. Also, the species specificity entry at c-mpl [4] is given as “High species specificity”. Also, in the data set with c-mpl [5], the “cross-reactivity: cynomolgus macaques” value is listed as “No cross-reactivity: cynomolgus macaques, cat, mouse, etc”. The T1/2 entry in [6] is given as “T1/2 = 12 hr”. In addition, the “cross-reactivity: mouse” value on c-mpl [7] was “No cross-reactivity: cynomolgus macaques, cat, mouse, etc”. In addition, the pEC50 with Hu BM CD34 was about 7.00.
Consider `CCC(C)C(N)C(=O)NC(CCC(=O)O)C(=O)NCC(=O)N1CCCC1C(=O)NC(C(=O)NC(CC(C)C)C(=O)NC(CCCNC(=N)N)C(=O)NC(CCC(N)=O)C(=O)NC(Cc1ccc2ccccc2c1)C(=O)NC(CC(C)C)C(=O)NC(C)C(=O)NC(C)C(=O)NC(CCCNC(=N)N)C(=O)N(C)CC(=O)NC(CCCCNC(=O)CN(C)C(=O)C(CCCNC(N)N)NC(=O)C(C)NC(=O)C(C)NC(=O)C(CC(C)C)NC(=O)C(Cc1ccc2ccccc2c1)NC(=O)C(CCC(N)=O)NC(=O)C(CCCNC(=N)N)NC(=O)C(CC(C)C)NC(=O)C(NC(=O)C1CCCN1C(=O)CNC(=O)C(CCC(=O)O)NC(=O)C(NC)C(C)CC)C(C)O)C(N)=O)C(C)O` (centres unmarked) [peg-TPOmp] (I: H-IEGPTLRQ[2Nal]LAAR[Sar]K-NH2 / II: H-[NMeI]EGPTLRQ[2Nal]LAA[X1][Sar]; amide I:15-II:C; configuration not given here), for which the “cross-reactivity to mouse receptors” value at mouse receptors was “Cross-reactive to mouse, rat, and dog receptors”. Besides, in the data set with rat receptors, the “cross-reactivity to rat receptors” value was “Cross-reactive to mouse, rat, and dog receptors”. In addition, the “cross-reactivity to dog receptors” value with dog receptors was “Cross-reactive to mouse, rat, and dog receptors”.
